Results taken from US20260137697A1, “THIAZOLO[5,4-D]PYRIMIDINE COMPOUNDS, COMPOSITIONS COMPRISING THEM AND USES THEREOF” (University de Montreal, priority 2022, published 2026).

Test system: pERK, RAS-mutant cancer cell lines
Experiment: Paradoxical pERK induction across the panel of RAS-mutant cancer cell lines
Format: cell-based, human
Settings: in 10 of the 13 RAS-mutant cell lines tested; mild to strong induction of the pathway
Method: All cancer cell lines (A375, A101D, A2058, RKO, HT29 SK-MEL 30, IPC298, HepG2, HCT-116, Lovo, SW620, SW480, NCI-H358, NCI-H2122, Calu-6, NCIH2087, NCIH1755, NCIH1666 and Mewo) were obtained from ATCC and cultured in RPM1-1640 medium (Gibco) supplemented with 5% heat inactivated fetal bovine serum (FBS, Wisent) at 37° C. under 5% CO2. Cells were maintained in T175 flasks (Greiner). They were passaged by removing the culture medium, washing once in 10 mL of room temperature Phosphate Buffered Saline (PBS; Wisent) and incubating at 37° C. with 2 mL of 0.05% Trypsin (Thermo-Fisher). […]
After treatment, media was removed, and cells were lysed in 50 μL of 1× AlphaScreen Ultra Lysis Buffer (Perkin Elmer). […] After completion of the reactions, the signals were recorded on an EnVision plate reader (Perkin Elmer) using built in AlphaLISA® settings.
The effect of each compound dilution on the pERK signal was expressed in % inhibition and calculated as follows. […]
The ability of each compound to inhibit pERK signal was expressed as an IC50 value obtained by plotting the inhibition values for each data point of a dilution series and fitting the obtained curves using a log(agonist) versus response—variable slope (four parameters) function using GraphPadPrism (V7.0) or Dotmatics Screening Ultra platform. […]

YMIN of pERK IC50 curves: < −30%
Structure (SMILES): Cc1ccc2c(Nc3cccc(Cl)c3F)nccc2c1NC(=O)c1csc2c(N)ncnc12 [Belvarafenib, reference compound]
